Assay results reported in patent US5691319A, “Pyrimidine nucleoside derivatives having anti-tumor activity, their preparation and use” (Sankyo Company, Limited, priority 1991, dated 1997).

Columns and labels:
[1] = system: mouse fibrosarcoma M5076; assay: Anti-tumor activity against M5076 fibrosarcoma (sc implanted, BDF1 mice); assay type: in vivo; details: days 1, 4, 7, 10, 13 and 16; for 60 day survivors optimal dose / growth inhibition (%) optimal dose: oral; for 60 day survivors optimal dose: survivors/mice; for growth inhibition (%) optimal dose / growth inhibition (%) optimal dose/4: tumor size on twentieth day; for growth inhibition (%) optimal dose/4: optimal dose/4, oral
Experimental: The test animals used were female mice, 8-10 weeks old, of the BDF1 strain, weighing 20-25 g. The mice were purchased from Charles River Japan Inc., Kanagawa Japan. The mice were divided into experimental groups, each group containing 6 mice, and all mice within each group were treated identically. Each mouse was inoculated subcutaneously with 1×10^6 viable cells (the number of cells was measured by a dye exclusion method under microscopy) of the mouse fibrosarcoma M5076.
The test compounds listed in the following Table were dissolved in 0.2 ml of N,N-dimethylacetamide and the solution was mixed with 10% Emulphor (trade mark)-physiological saline on an agate mortar. The final concentration of N,N-dimethylacetamide was 5% v/v. The solution was administered orally on the first, fourth, seventh, tenth, thirteenth and sixteenth days following inoculation of the fibrosarcoma cells. The period for which the mice survived and the % inhibition of tumor growth were determined. A control group was not treated.
The anti-tumor effect is shown in the following Table 4 as the percent growth inhibition [GI (%)], calculated from the following equations [R. I. Geran et al., Cancer Chemother. Rept., 3 (1972)]:
TDt=average value of tumor sizes on the twentieth day in the treated group; and
TDc=average value of tumor sizes on the twentieth day in the control group;
tumor size=(tumor length+tumor width)/2.

[2] = system: p-388 leukemia; assay: Anti-tumor activity against p-388 leukemia (ip implanted, CDF1 mice); assay type: in vivo; details: for ILS (%) (increase in life span): days 1, 5 and 9; for 30 days survivors: days 1, 5 and 9, survivors/mice
Experimental: The test animals employed were female mice, 8 weeks of age, of the CDF1 strain, each weighing 21-25 g. The mice were divided into groups. each of 5 mice, and all mice within the group were treated identically. Into each mouse was implanted intraperitoneally 1×10^6 cells of the leukemia p-388.
The test compounds 1-9, 1-11, 1-15, 1-31 and 1-62 were dissolved in 0.2 ml of N,N-dimethylacetamide and the solution was mixed with 10% Emulphor (trade mark)-physiological saline on an agate mortar. Test compounds 1-34 and 1-41 were dissolved in a small amount of Tween 80 (registered trade mark) and immediately thereafter physiological saline was added to the solution form a suspension. The suspension was administered intraperitoneally on the first, fifth and ninth days following implantation of the leukemia cells. The period for which the mice survived was determined. A control group was treated identically, except that no active compound was administered.
The anti-tumor effect is shown in the following Table 3 as the increase in life span [ILS (%)], calculated from the following equation [R. I. Geran et al, Cancer Chemother. Rept., 3 (1972)]:
Dt=average number of days survival by the test group; and
Dc=average number of days survival by the control group.
In this test Dc was 9-10 days.

| SMILES | 60 day survivors optimal dose [1] | growth inhibition (%) optimal dose [1] [%] | growth inhibition (%) optimal dose/4 [1] [%] | ILS (%) (increase in life span) ([2]; dose 200 mg/kg) | 30 days survivors ([2]; dose 200 mg/kg) | ILS (%) (increase in life span) ([2]; dose 50 mg/kg) | 30 days survivors ([2]; dose 50 mg/kg) | ILS (%) (increase in life span) ([2]; dose 100 mg/kg) | 30 days survivors ([2]; dose 100 mg/kg) |
| --- | --- | --- | --- | --- | --- | --- | --- | --- | --- |
| CCCCCC(=O)Nc1ccn([C@@H]2O[C@H](CO)[C@@H](O)[C@@H]2C#N)c(=O)n1 [Compound 1-1, 2'-Cyano-2'-deoxy-N^4-hexanoyl-1-β-D-arabinofuranosylcytosine] | 4/6 | 97.7 | 61.1 |  |  |  |  |  |  |
| CCCCCCCCCC(=O)Nc1ccn([C@@H]2O[C@H](CO)[C@@H](O)[C@@H]2C#N)c(=O)n1 [Compound 1-5, 2'-Cyano-N^4-decanoyl-2'-deoxy-1-β-D-arabinofuranosylcytosine] | 3/6 | 93.0 | 70.4 |  |  |  |  |  |  |
| CCCCCCCCCCCCCC(=O)Nc1ccn([C@@H]2O[C@H](CO)[C@@H](O)[C@@H]2C#N)c(=O)n1 [Compound 1-9, 2'-Cyano-2'-deoxy-N^4-tetradecanoyl-1-β-D-arabinofuranosylcytosine] | 5/6 | 97.3 | 79.1 | > 200 | 4/5 |  |  |  |  |
| CCCCCCCCCCCCCCCC(=O)Nc1ccn([C@@H]2O[C@H](CO)[C@@H](O)[C@@H]2C#N)c(=O)n1 [Compound 1-11, 2'-Cyano-2'-deoxy-N^4-palmitoyl-1-β-D-arabinofuranosylcytosine] | 5/6 | 99.2 | 90.2 |  |  | 189 | 2/5 |  |  |
| CCCCCCCCCCCCCCCCCC(=O)Nc1ccn([C@@H]2O[C@H](CO)[C@@H](O)[C@@H]2C#N)c(=O)n1 [Compound 1-13, 2'-Cyano-2'-deoxy-N^4-stearoyl-1-β-D-arabinofuranosylcytosine] | 4/6 | 98.1 | 88.9 |  |  |  |  |  |  |
| CCCCCCCCCCCCCCCCCCCC(=O)Nc1ccn([C@@H]2O[C@H](CO)[C@@H](O)[C@@H]2C#N)c(=O)n1 [Compound 1-15, 2'-Cyano-2'-deoxy-N^4-icosanoyl-1-β-D-arabinofuranosylcytosine] | 5/6 | 96.5 | 88.7 |  |  |  |  | 202 | 0/5 |
| COCOCCCCCCCCCC(=O)Nc1ccn([C@@H]2O[C@H](CO)[C@@H](O)[C@@H]2C#N)c(=O)n1 [Compound 1-31, 2'-Cyano-2'-deoxy-N^4-(10-methoxymethoxydecanoyl)-1-β-D-arabinofuranosylcytosine] |  |  |  | 152 | 0/5 |  |  |  |  |
| COCOCCCCCCCCCCCCCCCC(=O)Nc1ccn([C@@H]2O[C@H](CO)[C@@H](O)[C@@H]2C#N)c(=O)n1 [Compound 1-34, 2'-Cyano-2'-deoxy-N^4-(16-methoxymethoxyhexadecanoyl)-1-β-D-arabinofuranosylcytosine] | 5/6 | 96.0 | 87.2 |  |  |  |  | > 195 | 3/5 |
| COCCOCOCCCCCCCCCCCCCCCC(=O)Nc1ccn([C@@H]2O[C@H](CO)[C@@H](O)[C@@H]2C#N)c(=O)n1 [Compound 1-41, 2'-Cyano-2'-deoxy-N^4-(16-methoxyethoxymethoxyhexadecanoyl)-1-β-D-arabinofuranosylcytosine] | 5/6 | 99.2 | 76.2 |  |  |  |  | 159 | 2/5 |
| N#CCCCCCCCCCCC(=O)Nc1ccn([C@@H]2O[C@H](CO)[C@@H](O)[C@@H]2C#N)c(=O)n1 [Compound 1-62, 2'-Cyano-N^4-(11-cyanoundecanoyl)-2'-deoxy-1-β-D-arabinofuranosylcytosine] | 6/6 | 99.0 | 83.3 | 159 | 0/5 |  |  |  |  |
